`O=C(O)C/C(C(=O)O)=C(\CCCCCCCCCCCCCCCCOS(=O)(=O)O)C(=O)O` [1-Z, (Z)-3,4-dicarboxy-20-sulfooxy-3-eicosenoic acid]: the melting point (commonly the temperature, or range, at which the solid turns liquid) was in the range of 63 to 65 °C.

Source of the values: patent US20110301370A1, “METHOD FOR PREPARING OREGANIC ACID” (CONSEJO SUPERIOR DE INVESTIGACIONES CIENTÍFICAS, priority 2008, published 2011).
